Measurements: patent publication US9676820B2, “Method for inhibiting proliferation of high LIX1L-expressing tumor cell, and tumor cell proliferation-inhibiting peptide” (National University Corporation Hamamatsu University School …, priority 2013, dated 2017)

Key:
MKN45 cell strains = experiment: Cancer mouse model transplanted with MKN45 cell strain; format: in vivo; details: nude mice with MKN45 transplant; 100 μL of 30 μM peptide solution 4 times; vs spare mice given nothing
Protocol: Rearing of 10 nude male mice (BALB/cAJcl-nu/nu, purchased from CLEA Japan, Inc.) at the age of 7 weeks was started, and MKN45 cell strains separately cultured were transplanted into the mice by being subcutaneously injected thereinto on day 31. The day on which the transplantation was performed was set as day 0, the mice were divided into two groups (peptide 1-administered group and control peptide-administered group) of 5 mice on day 14 of the transplantation, 4 mice were selected among the 5 mice from each group, and the peptide 1 or the control peptide was administered. The remaining one mouse was set as a spare. In the peptide 1-administered group, 100 μL of a 30 μM peptide 1 solution (solution prepared by adding a methylcellulose solution to the solution after the peptide 1 was dissolved in PBS (−)) was subcutaneously injected into a tumor site (site into which the MKN45 cell strain was injected) 4 times every 3 days. In the control peptide-administered group, 100 μL of a 30 μM control peptide solution (solution prepared by adding a methylcellulose solution to the solution after the control peptide was dissolved in PBS (−)) was subcutaneously injected into a tumor site 4 times on the same days as those in the peptide 1-administered group.
The results in which the points of time (days) at which a peptide solution was administered to each mouse and the volume (mm^3) of a tumor site were temporally measured are shown in FIG. 21. For the volume of the tumor site, the width and the length of the tumor site determined from the appearance of the mouse were measured and calculated using the following formula. [Volume(mm^3) of Tumor Site]=([Width(mm) of Tumor Site]^2×[Length(mm) of Tumor Site])/2
The “width of tumor site” referred herein means a maximum width of a portion in which the skin has risen due to the tumor and the “length of tumor site” means a maximum length of a portion in which the skin has risen due to the tumor.

K562 strain = experiment: MTT assay, K562 strain; format: cell-based; details: 72 hours; for absorbance at 570 nm (MTT assay), influence on cell proliferation: peptide 0 μM to 100 μM
Protocol: (§1) Specifically, first, cells plated in a 96-well microplate such that the density thereof became 5×10^3 cells/well were cultured for one night in a culture solution having the same composition as those in the reference examples. Thereafter, the culture solution was exchanged with 100 μL of a culture solution of which the concentration of peptides is 0 μM to 100 μM for culturing for 72 hours. After the culturing, an MTT-containing PBS solution was added to the culture solution, and the mixture was incubated for 4 hours. Then, formazan which was generated by putting 100 μL of isopropanol (containing 34 (v/v) % of hydrochloric acid) into each of the wells was dissolved. The absorbance of each of the wells of the microplate at 570 nm was measured using a microplate reader. As controls, culturing was performed in the same manner except that no peptide was added to the strains, an MTT assay was performed thereon, and the absorbance at 570 nm was measured (untreated).
(§2) Specifically, the cells were cultured for 72 hours similarly to Example 2 except that a peptide to be added to a cell strain was set to peptide 1, 3, or 4, or a control peptide, an MTT assay was performed thereon, and the absorbance at 570 nm was measured.
(§3) In the method for measuring the viable cell counts, cells were cultured for 3 days similarly to Example 1 except that a 25 μM (10 μM for an HL-60 strain, a K562 strain, and a U937 strain) culture solution containing a control peptide or a peptide 1 was used, and the viable cell counts were measured. As a comparison, culturing was performed similarly to the above using a culture solution containing no peptide, and the viable cell counts were measured (untreated).
(§4) In addition, in the method for performing an MTT assay, cells were cultured for 72 hours similarly to Example 2 except that a peptide to be added to a strain was set to a control peptide or a peptide 1 at 25 μM (10 μM for an HL-60 strain, a K562 strain, and a U937 strain), an MTT assay was performed thereon, and the absorbance at 570 nm was measured. As a comparison, culturing was performed similarly to the above using a culture solution containing no peptide, and the MTT assay was performed thereon (untreated).
(§5) Specifically, the cells were cultured for 72 hours similarly to Example 2 except that a peptide to be added to a cell was set to a peptide 1, 2, 5, or 6, MTT assays were performed thereon, and the absorbance at 570 nm was measured. As a comparison, culturing was performed similarly to the above using a culture solution containing no peptide, and the MTT assay was performed thereon (untreated).
Specifically, the cells were cultured for 72 hours similarly to Example 2 except that peptides to be added to cell strains were set to peptides 7 to 14, MTT assays were performed thereon, and the absorbance at 570 nm was measured. As a comparison, culturing was performed similarly to the above using a culture solution containing no peptide, and the MTT assay was performed thereon (untreated).
Specifically, the cells were cultured for 72 hours similarly to Example 2 except that a peptide to be added to a cell strain was set to a peptide 15 or 16, an MTT assay was performed thereon, and the absorbance at 570 nm was measured. As a comparison, culturing was performed similarly to the above using a culture solution containing no peptide, and the MTT assay was performed thereon (untreated).

MKN45 strain = experiment: MTT assay, MKN45 strain; format: cell-based; details: 72 hours, peptide concentrations up to 250 μM
Protocol: as §1, with “Thereafter, the culture solution was exchanged with 100 μL of a culture solution of which the concentration of peptides is 0 μM to 100 μM for culturing for 72 hours.” left out
as §3, §4, §5
(§6) Specifically, the cells were cultured for 72 hours similarly to Example 2 except that peptides to be added to cell strains were set to peptides 7 to 14, MTT assays were performed thereon, and the absorbance at 570 nm was measured. […]
(§7) Specifically, the cells were cultured for 72 hours similarly to Example 2 except that a peptide to be added to a cell strain was set to a peptide 15 or 16, an MTT assay was performed thereon, and the absorbance at 570 nm was measured. […]

293 FLG/LIX1L = experiment: MTT assay, 293 FLG/LIX1L cells; format: cell-based; details: 72 hours, peptide concentrations up to 250 μM
Protocol: as §1, with “Thereafter, the culture solution was exchanged with 100 μL of a culture solution of which the concentration of peptides is 0 μM to 100 μM for culturing for 72 hours.” left out
as §3, §4, §5, §6, §7

293 FLG = experiment: MTT assay, 293 FLG cells; format: cell-based; details: 72 hours, peptide concentrations up to 250 μM
Protocol: as §1, with “Thereafter, the culture solution was exchanged with 100 μL of a culture solution of which the concentration of peptides is 0 μM to 100 μM for culturing for 72 hours.” left out
as §3, §4, §5, §6, §7

NUGC-4 strain = experiment: MTT assay, NUGC-4 strain; format: cell-based; details: 72 hours, peptide concentrations up to 250 μM
Protocol: as §1, with “Thereafter, the culture solution was exchanged with 100 μL of a culture solution of which the concentration of peptides is 0 μM to 100 μM for culturing for 72 hours.” left out
as §3, §4, §5, §6, §7

U937 strain = experiment: MTT assay, U937 strain; format: cell-based; details: peptide 0 μM to 100 μM, 72 hours
Protocol: as §1, §2, §3, §4

RPMI8226 strain = experiment: MTT assay, RPMI8226 strain; format: cell-based; details: peptide 0 μM to 100 μM, 72 hours
Protocol: as §1, §2

| Molecule | absorbance at 570 nm (MTT assay), influence on cell proliferation (K562 strain) | absorbance at 570 nm (MTT assay), cell proliferation (U937 strain) | absorbance at 570 nm (MTT assay), influence on cell proliferation (RPMI8226 strain) | also measured |
| --- | --- | --- | --- | --- |
| N=C(N)NCCC[C@H](NC(=O)CNC(=O)[C@@H](N)Cc1ccc(O)cc1)C(=O)N[C@@H](CCCCN)C(=O)N[C@@H](CCCCN)C(=O)N[C@@H](CCCNC(=N)N)C(=O)N[C@@H](CCCNC(=N)N)C(=O)N[C@@H](CCC(N)=O)C(=O)N[C@@H](CCCNC(=N)N)C(=O)N[C@@H](CCCNC(=N)N)C(=O)N[C@@H](CCCNC(=N)N)C(=O)NCCCCCC(N)=O [control peptide, reference compound] |  |  |  | body weight (MKN45 cell strains): no particularly significant change |
| YGRKKRRQRRR-X-HTQGYGRVNV-NH2 (YGRKKRRQRRRXHTQGYGRVNV; ε-aminocaproic acid linker; C-terminal amide; peptide 6) |  |  |  | cell proliferation (MTT assay, absorbance at 570 nm) (K562 strain; peptide concentrations up to 250 μM): not inhibited; cell proliferation (MTT assay, absorbance at 570 nm) (MKN45 strain): not inhibited; cell proliferation (MTT assay, absorbance at 570 nm) (293 FLG/LIX1L): not inhibited; cell proliferation (MTT assay, absorbance at 570 nm) (293 FLG): not inhibited; cell proliferation (MTT assay, absorbance at 570 nm) (NUGC-4 strain): not inhibited |
| peptide 3: peptide in which the Y136-containing partial sequence consists of 20 amino acids (YGRKKRRQRRRXEMVPSNSPPYVCYVTLPGGS; peptide 3) | inhibited | inhibited | not inhibited |  |
| peptide 4: peptide in which the Y136-containing partial sequence consists of 30 amino acids (YGRKKRRQRRRXALVVYEMVPSNSPPYVCYVTLPGGSCFGSF; peptide 4) | inhibited | inhibited | not inhibited |  |
